Results reported in patent publication US11077115B2, “Rorgamma modulators and uses thereof” (Genfit, priority 2017, dated 2021).
Structures can show the parent of a compound that is named as a salt.

| melting point [°C] | SMILES |
| --- | --- |
| 105 | Cc1ccc(C(NC(=O)Cc2cnc(N3CCS(=O)(=O)CC3)nc2)c2ccc(C)o2)c(N2CC3CC3C2)c1 (centres unmarked) (as salt: HCl) [Cpd. 36, N-[(2-{3-azabicyclo[3.1.0]hexan-3-yl}-4-methylphenyl)(5-methylfuran-2-yl)methyl]-2-[2-(1,1-dioxo-1-thiomorpholin-4-yl)pyrimidin-5-yl]acetamide] |
| 202 | O=C(Cc1ccc(N2CCS(=O)(=O)CC2)cc1)NC(c1ccccc1)c1ccccc1N1CCCCC1 (centres unmarked) (as salt: HCl) [Cpd. 1, 2-[4-(1,1-dioxo-1-thiomorpholin-4-yl)phenyl]-N-{phenyl[2-(piperidin-1-yl)phenyl]methyl}acetamide] |
| 86 | Cc1ccc(C(NC(=O)C2(c3cc(N4CCS(=O)(=O)CC4)ccc3C)CC2)c2ccc(C)o2)c(C)c1 (centres unmarked) (as salt: HCl) [Cpd. 70, N-[(2,4-dimethylphenyl)(5-methylfuran-2-yl)methyl]-1-[5-(1,1-dioxo-1-thiomorpholin-4-yl)-2-methylphenyl]cyclopropane-1-carboxamide] |
| 99 | Cc1ccc(C(NC(=O)Cc2ncc(N3CCS(=O)(=O)CC3)cn2)c2ccc(C)o2)c(N2CCCCC2)c1 (centres unmarked) (as salt: HCl) [Cpd. 65, 2-[5-(1,1-dioxo-1-thiomorpholin-4-yl)pyrimidin-2-yl]-N-{[4-methyl-2-(piperidin-1-yl)phenyl](5-methylfuran-2-yl)methyl}acetamide] |
| 90 | COc1cc(CC(=O)NC(c2ccc(C)o2)c2ccc(C)cc2N2CCCCC2)ccc1N1CCS(=O)(=O)CC1 (centres unmarked) (as salt: HCl) [Cpd. 29, 2-[4-(1,1-dioxo-1-thiomorpholin-4-yl)-3-methoxyphenyl]-N-{[4-methyl-2-(piperidin-1-yl)phenyl](5-methylfuran-2-yl)methyl}acetamide] |
| 100 | Cc1ccc(C(NC(=O)Cc2ccc(CO)c(N3CCS(=O)(=O)CC3)c2)c2ccc(C)o2)c(N2CCCCC2)c1 (centres unmarked) (as salt: HCl) [Cpd. 63, 2-[3-(1,1-dioxo-1-thiomorpholin-4-yl)-4-(hydroxymethyl)phenyl]-N-{[4-methyl-2-(piperidin-1-yl)phenyl](5-methylfuran-2-yl)methyl}acetamide] |
| 82 | Cc1ccc(C(NC(=O)Cc2cc(N3CCOCC3)ccc2F)c2ccccc2)c(N2CCCCC2)c1 (centres unmarked) (as salt: HCl) [Cpd. 8, 2-[2-fluoro-5-(morpholin-4-yl)phenyl]-N-{[4-methyl-2-(piperidin-1-yl)phenyl](phenyl)methyl}acetamide] |
| 98 | COc1ccc(C(NC(=O)Cc2ccc(N3CCS(=O)(=O)CC3)c(C)c2)c2ccc(C)o2)c(N(C)C)c1 (centres unmarked) (as salt: HCl) [Cpd. 15, N-{[2-(dimethylamino)-4-methoxyphenyl](5-methylfuran-2-yl)methyl}-2-[4-(1,1-dioxo-1-thiomorpholin-4-yl)-3-methylphenyl]acetamide] |
| 105 | Cc1ccc(C(NC(=O)Cc2ccc(N3CCS(=O)(=O)CC3)c(O)c2)c2ccc(C)o2)c(N2CCCCC2)c1 (centres unmarked) (as salt: HCl) [Cpd. 61, 2-[4-(1,1-dioxo-1-thiomorpholin-4-yl)-3-hydroxyphenyl]-N-{[4-methyl-2-(piperidin-1-yl)phenyl](5-methylfuran-2-yl)methyl}acetamide] |
| 106 | Cc1ccc(C(NC(=O)C2(c3ccc(N4CCS(=O)(=O)CC4)c(Br)c3)CC2)c2ccc(C)o2)c(N2CCCCC2)c1 (centres unmarked) (as salt: HCl) [Cpd. 37, 1-[3-bromo-4-(1,1-dioxo-1-thiomorpholin-4-yl)phenyl]-N-{[4-methyl-2-(piperidin-1-yl)phenyl](5-methylfuran-2-yl)methyl}cyclopropane-1-carboxamide] |
| 79 | Cc1ccc(C(NC(=O)C2(c3ccc(N4CCS(=O)(=O)CC4)cc3)CCC2)c2ccc(C)o2)c(C)c1 (centres unmarked) (as salt: HCl) [Cpd. 41, N-[(2,4-dimethylphenyl)(5-methylfuran-2-yl)methyl]-1-[4-(1,1-dioxo-1-thiomorpholin-4-yl)phenyl]cyclobutane-1-carboxamide] |
| 173 | Cc1ccc(C(NC(=O)Cc2ccc(N3CCS(=O)(=O)CC3)cc2C)c2ccc(C)o2)c(Br)c1 (centres unmarked) (as salt: HCl) [Cpd. 21, N-[(2-bromo-4-methylphenyl)(5-methylfuran-2-yl)methyl]-2-[4-(1,1-dioxo-1-thiomorpholin-4-yl)-2-methylphenyl]acetamide] |
| 219 | Cc1ccc(C(NC(=O)Cc2cc(N3CCS(=O)(=O)CC3)ccc2C)c2ccccc2)c(N2CCOCC2)c1 (centres unmarked) (as salt: HCl) [Cpd. 7, 2-[5-(1,1-dioxo-1-thiomorpholin-4-yl)-2-methylphenyl]-N-{[4-methyl-2-(morpholin-4-yl)phenyl](phenyl)methyl}acetamide] |
| 101 | Cc1ccc(C(NC(=O)Cc2cc(N3CCS(=O)(=O)CC3)ccc2C)c2ccc(C)o2)c(N2CCCCC2)c1 (centres unmarked) (as salt: HCl) [Cpd. 5, 2-[5-(1,1-dioxo-1-thiomorpholin-4-yl)-2-methylphenyl]-N-{[4-methyl-2-(piperidin-1-yl)phenyl](5-methylfuran-2-yl)methyl}acetamide] |
| 157 | Cc1ccc(C(NC(=O)C2(c3ccc(N4CCS(=O)(=O)CC4)cc3)CC2)c2ccc(Cl)o2)cc1 (centres unmarked) (as salt: HCl) [Cpd. 67, N-[(5-chlorofuran-2-yl)(4-methylphenyl)methyl]-1-[4-(1,1-dioxo-1-thiomorpholin-4-yl)phenyl]cyclopropane-1-carboxamide] |
| 99 | Cc1ccc(C(NC(=O)Cc2cnc(N3CCS(=O)(=O)CC3)nc2C)c2ccc(C)o2)c(N2CCCCC2)c1 (centres unmarked) (as salt: HCl) [Cpd. 38, 2-[2-(1,1-dioxo-1-thiomorpholin-4-yl)-4-methylpyrimidin-5-yl]-N-{[4-methyl-2-(piperidin-1-yl)phenyl](5-methylfuran-2-yl)methyl}acetamide] |
| 72 | Cc1ccc(C(NC(=O)C2(c3cccc(N4CCS(=O)(=O)CC4)c3)CC2)c2ccc(C)o2)c(C)c1 (centres unmarked) (as salt: HCl) [Cpd. 68, N-[(2,4-dimethylphenyl)(5-methylfuran-2-yl)methyl]-1-[3-(1,1-dioxo-1-thiomorpholin-4-yl)phenyl]cyclopropane-1-carboxamide] |
| 184 | O=C(Cc1cc(N2CCS(=O)(=O)CC2)ccc1F)NC(c1ccccc1)c1ccccc1N1CCCCC1 (centres unmarked) (as salt: HCl) [Cpd. 3, 2-[5-(1,1-dioxo-1-thiomorpholin-4-yl)-2-fluorophenyl]-N-{phenyl[2-(piperidin-1-yl)phenyl]methyl}acetamide] |
| 101 | COc1ccc(C(NC(=O)C2(c3cnc(N4CCS(=O)(=O)CC4)nc3)CC2)c2ccc(C)o2)c(C)c1 (centres unmarked) (as salt: HCl) [Cpd. 57, 1-[2-(1,1-dioxo-1-thiomorpholin-4-yl)pyrimidin-5-yl]-N-[(4-methoxy-2-methylphenyl)(5-methylfuran-2-yl)methyl]cyclopropane-1-carboxamide] |
| 102 | Cc1ccc(C(NC(=O)Cc2ccc(N3CCS(=O)(=O)CC3)cn2)c2ccc(C)o2)c(N2CCCCC2)c1 (centres unmarked) (as salt: HCl) [Cpd. 47, 2-[5-(1,1-dioxo-1-thiomorpholin-4-yl)pyridin-2-yl]-N-{[4-methyl-2-(piperidin-1-yl)phenyl](5-methylfuran-2-yl)methyl}acetamide] |
